Measurements taken from patent US10792324B2, “Compositions and methods for the treatment of orthopedic ailments” (K.L.R.M., LLC, priority 2016, dated 2020).

Columns and labels:
femur fracture [1] = assay: Biomechanical evaluation (torsion to failure) of healing femur fracture; type: in vivo, rat
Method: As briefly mentioned above, efficacy of the present nutraceutical composition was tested. Fifty-eight male Sprague-Dawley rats (10 weeks old, body weight (BW): 344±11 g) were used for this study, which was approved by the Institutional Animal Care and Use Committee of the Charles R. Drew University of Medicine and Science. The rats were housed for one week prior to experimental procedures to permit acclimatization and then randomly assigned to three groups. The control group (n=19 rats) received 0.2 ml of vehicle composed of 10% dimethyl sulfoxide (DMSO), peanut butter and water by retro-lingual administration. The tadalafil group (n=20 rats) was given a daily oral dose of 2.0 mg/kg body weight (BW) of the PDE5 inhibitor, tadalafil (Eli Lilly, Indianapolis, Ind.), mixed with vehicle. […] The COMB-4 group (Naturex, […]=19 rats), that is, the group receiving the nutraceutical composition in accordance with the present invention, received a combination of Muira puama (45 mg/kg body weight BW), Paullinia cupana (45 mg/kg BW), ginger (45 mg/kg BW) and L-citrulline (133 mg/kg BW) dissolved in vehicle. The appropriate rat dose of each of the four components of COMB-4 was calculated based on the equivalent recommended human daily dose as previously reported. See International Patent Publication Number WO 2012/067745 A 1 for more details on the ingredients in COMB-4, ranges of ingredients, and the beneficial effects thereof in treating Erectile Dysfunction and cardiovascular disease. All animals received the vehicle only for the three days prior to surgery to get the animals adapted to the taste, and began receiving either their respectively assigned control or experimental daily dose of tadalafil or COMB-4 on the same day right after the fracture (day 0). All surgeries were performed by one orthopedic surgeon who was blinded to the rats' experimental assignment. Anesthesia was induced with 3% isoflurane and maintained with 2.5% isoflurane throughout the surgery. All rats received subcutaneous injections of buprenorphine 0.05 mg/kg body weight for pre- and post-operative pain control. Each rat then underwent a unilateral femur fracture with internal fixation. […] The underlying fascia was incised at the medial patellar tendon border and the patella was dislocated laterally. The trochlea was opened with a 1.0 mm drill bit and the intramedullary canal and greater trochanter were […] 21-3 gauge hypodermic needle. The intramedullary canal was sequentially […] 18-gauge needle, and the epicondyle was further opened with a 16-gauge needle. The femoral shaft was accessed by sweeping the vastus medialis laterally. A cat claw scissors (Petco, San Diego, Calif.) placed at the junction of the middle and distal one-third of the femoral shaft was used to make a transverse fracture. A randomizer table was used to determine laterality of the osteotomy. While maintaining control of both fracture fragments, a titanium compression intramedullary screw ([…], Davos, Switzerland) was applied in a retrograde manner while directly visualizing the fracture reduction. […] The fascia and skin were closed in two layers utilizing 4-0 Vicryl (Ethicon Inc., Somerville, N.J.) and VetBond skin glue (3M, St. Paul, Minn.). […] Unprotected weight bearing was permitted immediately postoperatively, and on day 14, 5 rats from each group were euthanized using inhalational CO2 and femora were harvested for qCT (quantitative computerized tomography) and histological evaluation. […]

femur fracture [2] = assay: Callus development analysis via qCT after femur fracture; type: in vivo, rat; details: osteotomy site
Method: As briefly mentioned above, efficacy of the present nutraceutical composition was tested. Fifty-eight male Sprague-Dawley rats (10 weeks old, body weight (BW): 344±11 g) were used for this study, which was approved by the Institutional Animal Care and Use Committee of the Charles R. Drew University of Medicine and Science. The rats were housed for one week prior to experimental procedures to permit acclimatization and then randomly assigned to three groups. The control group (n=19 rats) received 0.2 ml of vehicle composed of 10% dimethyl sulfoxide (DMSO), peanut butter and water by retro-lingual administration. The tadalafil group (n=20 rats) was given a daily oral dose of 2.0 mg/kg body weight (BW) of the PDE5 inhibitor, tadalafil (Eli Lilly, Indianapolis, Ind.), mixed with vehicle. […] The COMB-4 group (Naturex, […]=19 rats), that is, the group receiving the nutraceutical composition in accordance with the present invention, received a combination of Muira puama (45 mg/kg body weight BW), Paullinia cupana (45 mg/kg BW), ginger (45 mg/kg BW) and L-citrulline (133 mg/kg BW) dissolved in vehicle. The appropriate rat dose of each of the four components of COMB-4 was calculated based on the equivalent recommended human daily dose as previously reported. See International Patent Publication Number WO 2012/067745 A 1 for more details on the ingredients in COMB-4, ranges of ingredients, and the beneficial effects thereof in treating Erectile Dysfunction and cardiovascular disease. All animals received the vehicle only for the three days prior to surgery to get the animals adapted to the taste, and began receiving either their respectively assigned control or experimental daily dose of tadalafil or COMB-4 on the same day right after the fracture (day 0). All surgeries were performed by one orthopedic surgeon who was blinded to the rats' experimental assignment. Anesthesia was induced with 3% isoflurane and maintained with 2.5% isoflurane throughout the surgery. All rats received subcutaneous injections of buprenorphine 0.05 mg/kg body weight for pre- and post-operative pain control. Each rat then underwent a unilateral femur fracture with internal fixation. […] The underlying fascia was incised at the medial patellar tendon border and the patella was dislocated laterally. The trochlea was opened with a 1.0 mm drill bit and the intramedullary canal and greater trochanter were […] 21-3 gauge hypodermic needle. The intramedullary canal was sequentially […] 18-gauge needle, and the epicondyle was further opened with a 16-gauge needle. The femoral shaft was accessed by sweeping the vastus medialis laterally. A cat claw scissors (Petco, San Diego, Calif.) placed at the junction of the middle and distal one-third of the femoral shaft was used to make a transverse fracture. A randomizer table was used to determine laterality of the osteotomy. While maintaining control of both fracture fragments, a titanium compression intramedullary screw ([…], Davos, Switzerland) was applied in a retrograde manner while directly visualizing the fracture reduction. […] The fascia and skin were closed in two layers utilizing 4-0 Vicryl (Ethicon Inc., Somerville, N.J.) and VetBond skin glue (3M, St. Paul, Minn.). A small amount of triple antibiotic ointment ([…].) was applied to the skin. Range of motion at the hip and knee was performed to ensure there was no penetration of the screw proximally and that the patella was adequately tracking. Unprotected weight bearing was permitted immediately postoperatively, and on day 14, 5 rats from each group were euthanized using inhalational CO2 and femora were harvested for qCT (quantitative computerized tomography) and histological evaluation. On day 42, fifteen (15) rats from each group were euthanized for qCT and histological evaluation. The remaining rats were euthanized for biomechanical testing. Mineral Content and Callus Volume. […]

[3] = day 42, relative to control group
[4] = day 42, torsion test, mean ± S.D.
[5] = Newly formed Total Callus (>299 mg/cm^3), Day 14, mean ± S.D.
[6] = Newly formed Total Callus (>299 mg/cm^3), Day 42, mean ± S.D.
[7] = Newly formed Total Callus (>500 mg/cm^3), Day 14, mean ± S.D.
[8] = Newly formed Total Callus (>500 mg/cm^3), Day 42, mean ± S.D.

`CN1CC(=O)N2[C@H](c3ccc4c(c3)OCO4)c3[nH]c4ccccc4c3C[C@@H]2C1=O` [Tadalafil, tadalafil] was tested, and the “higher maximum strength (maximum torque) than control group” value (femur fracture [1]; [3]) was 15%, the “higher stiffness than control group” value (femur fracture [1]; [3]) was 28% and the “Maximum Torque” value (femur fracture [1]; [4]) was 326.8 ± 138.0 Nmm. For the same compound, the “Torsional Stiffness” value (femur fracture [1]; [4]) was 59.9 ± 31.1 Nmm/Deg, the “Fracture Repair Stage (I, II, III or IV)” value (femur fracture [1]; day 42, torsion test, mean ± S.D., I = 1, II = 2, III = 3, IV = 4) was 2.4 ± 0.5 and the “Bone Density” value (femur fracture [2]; [5]) was 458.4 ± 29.2 mg/mL. For the same compound, the “Callus Volume” value (femur fracture [2]; [5]) was 44.9 ± 11.7 mm^3, the “Mineral Content” value (femur fracture [2]; [5]) was 20.8 ± 6.3 mg and the “Bone Density” value (femur fracture [2]; [6]) was 510.0 ± 18.9 mg/mL. For the same compound, the “Callus Volume” value (femur fracture [2]; [6]) was 66.3 ± 22.3 mm^3, the “Mineral Content” value (femur fracture [2]; [6]) was 34.1 ± 12.7 mg and the “Callus Volume” value (femur fracture [2]; [7]) was 16.4 ± 4.7 mm^3. For the same compound, the “Mineral Content” value (femur fracture [2]; [7]) was 11.0 ± 3.8 mg, the “Callus Volume” value (femur fracture [2]; [8]) was 35.6 ± 12.6 mm^3 and the “Mineral Content” value (femur fracture [2]; [8]) was 24.1 ± 8.3 mg. For the same compound, the “Bone Density” value (femur fracture [2]; Newly formed Total Callus, Day 14, mean ± S.D.) was 665.0 ± 2.0 mg/mL and the “Bone Density” value (femur fracture [2]; Newly formed Total Callus, Day 42, mean ± S.D.) was 697.2 ± 12.4 mg/mL.
